Laboratory results published in US4933157A, “Radioiodinated arylaliphatic ether analogues of cholesterol” (The University of Michigan, priority 1988, dated 1990).
Where two headings read alike, the source gives them in different places.

Columns and labels:
[1] = in vivo; cited from earlier work
[2] = Tissue distribution of radioactivity following IV administration of radioiodinated cholesteryl ethers to female rats; assay type: in vivo, female Sprague Dawley rats
Procedure: (§1) The labelled compounds ([…] ^125 I) were administered intravenously in a 2% Tween-20-saline vehicle. At various times following administration, the animals were sacrificed, and selected tissue samples were removed. The tissue samples were weighed and placed in cellulose acetate capsules. The radioactivity was then counted (85%) efficiency using a well scintillation counter (Searle 1185). The results from selected tissue samples are shown below in Tables 1 and 2. The tissue distribution of the selected cholesteryl ether is expressed as percent Kg dose per g of tissue after 30 minutes (Table 1) and after 24 hours (Table 2).

[3] = Tissue distribution of radioactivity following IV administration to male guinea pigs; assay type: in vivo, male Hartley guinea pigs
Procedure: as §1

[4] = Polyacrylamide gel electrophoresis of rat plasma (plasma level studies); assay type: in vivo, female Sprague Dawley rats
[5] = Procedure: Female Sprague Dawley rats were injected with a radio-iodinated arylaliphatic cholesteryl ether analogue (^125 I) solubilized in a suitable transport agent, such as 2% Tween 20-saline. After a predetermined time period, blood samples were drawn from the rats. The plasma was separated from the red blood cells and mixed with a suitable dye (Sudan Black or Sudan Blue). The plasma samples were then subjected to polyacrylamide gel electrophoresis to separate the various fractions. The radioactivity of the various fractions were measured with a gamma counter. […] The data is expressed as a percent of total radioactivity in the gel.
Guinea pigs have a greater concentration of low density lipoproteins in their blood plasma than rats.

Compound | Tissue distribution of radioactivity: Adrenal ([2]; 30 minutes) [% KG DOSE/G OF TISSUE] | Tissue distribution of radioactivity: Blood ([2]; 30 minutes) [% KG DOSE/G OF TISSUE] | Tissue distribution of radioactivity: Liver ([2]; 30 minutes) [% KG DOSE/G OF TISSUE] | Tissue distribution of radioactivity: Ovary ([2]; 30 minutes) [% KG DOSE/G OF TISSUE] | Tissue distribution of radioactivity: Thyroid ([2]; 30 minutes) [% KG DOSE/G OF TISSUE] | Tissue distribution of radioactivity: Adrenal ([2]; 24 hours) [% KG DOSE/G OF TISSUE] | Tissue distribution of radioactivity: Blood ([2]; 24 hours) [% KG DOSE/G OF TISSUE] | Tissue distribution of radioactivity: Liver ([2]; 24 hours) [% KG DOSE/G OF TISSUE] | Tissue distribution of radioactivity: Ovary ([2]; 24 hours) [% KG DOSE/G OF TISSUE] | Tissue distribution of radioactivity: Thyroid ([2]; 24 hours) [% KG DOSE/G OF TISSUE] | Gel fraction: Albumin ([4]; 30 minutes) | Gel fraction: Below Alb ([4]; 30 minutes) | Gel fraction: HDL Band (high density lipoproteins) ([4]; 30 minutes) | Gel fraction: LDL Band (low density lipoproteins) ([4]; 30 minutes) | Gel fraction: Stacking Gel ([4]; 30 minutes) | Gel fraction: Albumin ([4]; 24 hours) | Gel fraction: Below Alb ([4]; 24 hours) | Gel fraction: HDL Band ([4]; 24 hours) | Gel fraction: Stacking Gel ([4]; 24 hours) | also measured
CC(C)CCC[C@@H](C)[C@H]1CC[C@H]2[C@@H]3C[C@@H](C[131I])C4=C(CC[C@H](O)C4)[C@H]3CC[C@]12C [NP-59, 6-b-iodomethyl-19-norcholest-5[10]en-3b-ol] |  |  |  |  |  |  |  |  |  |  |  |  |  |  |  |  |  |  |  | metabolic loss of iodine and accumulation in the thyroid [1]: subject to metabolic loss of iodine and resulting accumulation of this iodine in the thyroid; uptake into the adrenal glands [1]: extremely slow
CC(C)CCC[C@@H](C)[C@H]1CC[C@H]2[C@@H]3CC=C4C[C@@H](OCc5cccc([125I])c5)CC[C@]4(C)[C@H]3CC[C@]12C [m-Iodobenzyl, m-iodobenzyl cholesteryl ether] | 1.347 ± 0.289 | 0.985 ± 0.127 | 1.414 ± 0.176 | 0.635 ± 0.036 | 0.133 ± 0.018 | 3.755 ± 0.362 | 0.070 ± 0.006 | 2.607 ± 0.072 | 1.924 ± 0.301 | 1.307 ± 0.150 | 0.3 ± 0.1 % OF TOTAL RADIOACTIVITY IN GEL | 0.0 ± 0.0 % OF TOTAL RADIOACTIVITY IN GEL | 53.3 ± 2.2 % OF TOTAL RADIOACTIVITY IN GEL | 41.0 ± 3.5 % OF TOTAL RADIOACTIVITY IN GEL | 5.4 ± 2.5 % OF TOTAL RADIOACTIVITY IN GEL | 1.1 ± 0.2 % OF TOTAL RADIOACTIVITY IN GEL | 0.5 ± 0.1 % OF TOTAL RADIOACTIVITY IN GEL | 45.7 ± 3.2 % OF TOTAL RADIOACTIVITY IN GEL | 21.6 ± 5.8 % OF TOTAL RADIOACTIVITY IN GEL | Tissue distribution of radioactivity: Adrenal ([3]; 30 min): 0.360 ± 0.019 % KG DOSE/G OF TISSUE; Tissue distribution of radioactivity: Blood ([3]; 30 min): 0.799 ± 0.041 % KG DOSE/G OF TISSUE; Tissue distribution of radioactivity: Liver ([3]; 30 min): 0.643 ± 0.044 % KG DOSE/G OF TISSUE; Tissue distribution of radioactivity: Testes ([3]; 30 min): 0.025 ± 0.002 % KG DOSE/G OF TISSUE; Tissue distribution of radioactivity: Thyroid ([3]; 30 min): 0.039 ± 0.002 % KG DOSE/G OF TISSUE; Tissue distribution of radioactivity: Adrenal ([3]; 24 hr): 7.861 ± 0.656 % KG DOSE/G OF TISSUE; Tissue distribution of radioactivity: Blood ([3]; 24 hr): 0.158 ± 0.020 % KG DOSE/G OF TISSUE; Tissue distribution of radioactivity: Liver ([3]; 24 hr): 2.023 ± 0.147 % KG DOSE/G OF TISSUE; Tissue distribution of radioactivity: Testes ([3]; 24 hr): 0.043 ± 0.010 % KG DOSE/G OF TISSUE; Tissue distribution of radioactivity: Thyroid ([3]; 24 hr): 1.546 ± 0.279 % KG DOSE/G OF TISSUE; Gel fraction: LDL Band ([5]; guinea pig plasma, IV, 24 hr): 72.2 ± 2.0 % OF TOTAL RADIOACTIVITY IN GEL; dose associated with the low density lipoproteins ([5]; guinea pig, in vivo): greater than 70 % of the dose
CC(C)CCC[C@@H](C)[C@H]1CC[C@H]2[C@@H]3CC=C4C[C@@H](OCCCCCCCCCCCCc5cccc([125I])c5)CC[C@]4(C)[C@H]3CC[C@]12C [m-Iodophenyldodecyl, 12-(m-iodophenyl)dodecyl cholesteryl ether] | 1.307 ± 0.177 | 1.250 ± 0.067 | 0.829 ± 0.121 | 0.936 ± 0.136 | 0.486 ± 0.085 | 3.063 ± 0.305 | 0.085 ± 0.002 | 1.779 ± 0.247 | 4.528 ± 0.816 | 6.047 ± 0.760 | 1.1 ± 0.2 % OF TOTAL RADIOACTIVITY IN GEL | 0.5 ± 0.1 % OF TOTAL RADIOACTIVITY IN GEL | 45.7 ± 3.2 % OF TOTAL RADIOACTIVITY IN GEL | 31.2 ± 4.0 % OF TOTAL RADIOACTIVITY IN GEL | 21.6 ± 5.8 % OF TOTAL RADIOACTIVITY IN GEL | 3.4 ± 0.7 % OF TOTAL RADIOACTIVITY IN GEL | 4.9 ± 1.3 % OF TOTAL RADIOACTIVITY IN GEL | 66.2 ± 2.6 % OF TOTAL RADIOACTIVITY IN GEL | 11.6 ± 1.3 % OF TOTAL RADIOACTIVITY IN GEL | Gel fraction: LDL Band ([4]; 24 hours): 14.0 ± 1.0 % OF TOTAL RADIOACTIVITY IN GEL
